Biological target: T1, human recombinant SERT (HEK293-hSERT cells) (Homo sapiens, UniProt P31645)
T1 construct: expressed in transfected cells; host or cells: HEK293 (stably transfected), whole cells
Test: hSERT neurotransmitter uptake assay
Format: cell-based
Conditions: serotonin reuptake inhibition in HEK293-hSERT cells; for IC50: read-out: SERT pIC50 (converted)
Method: HEK293 cells stably-transfected with human recombinant SERT (HEK293-hSERT) were grown in Dulbecco's Modified Eagle's Medium supplemented with 10% dialyzed fetal bovine serum, 100 µg/ml penicillin, 100 µg/ml streptomycin, 2 mM L-glutamine, and 250 μg/ml of the aminoglycoside antibiotic G418. Cells were incubated in a 5% CO2, humidified incubator at 37° C.
In pre-incubation studies, test compound was added to cells for 30 minutes at 37° C. prior to the addition of fluorescent substrate. […] For real-time measurements, compounds were either preincubated (as above) or mixed with substrate prior to addition, and kinetic measurements, relative fluorescence units (RFU integrated over 0.5 ms),were made using a cycle time of 1 min.

T1 sequence (P31645 whole entry): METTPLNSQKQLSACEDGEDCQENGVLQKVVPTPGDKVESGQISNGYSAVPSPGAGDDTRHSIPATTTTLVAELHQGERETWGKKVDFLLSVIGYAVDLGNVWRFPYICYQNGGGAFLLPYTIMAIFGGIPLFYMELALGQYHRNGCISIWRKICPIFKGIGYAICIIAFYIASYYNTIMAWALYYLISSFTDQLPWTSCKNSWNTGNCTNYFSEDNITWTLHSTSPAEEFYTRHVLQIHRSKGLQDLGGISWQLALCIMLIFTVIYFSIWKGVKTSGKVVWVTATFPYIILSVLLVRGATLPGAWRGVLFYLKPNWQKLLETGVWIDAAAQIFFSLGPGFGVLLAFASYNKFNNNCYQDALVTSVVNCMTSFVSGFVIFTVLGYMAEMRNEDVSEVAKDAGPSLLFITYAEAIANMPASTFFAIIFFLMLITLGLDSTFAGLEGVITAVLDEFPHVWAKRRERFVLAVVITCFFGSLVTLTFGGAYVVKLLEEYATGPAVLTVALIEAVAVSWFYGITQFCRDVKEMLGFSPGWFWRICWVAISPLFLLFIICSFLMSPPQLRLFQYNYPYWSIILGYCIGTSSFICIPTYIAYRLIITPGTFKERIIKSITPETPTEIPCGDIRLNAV

Compound | IC50 | SERT pIC50
CC(=O)Nc1cccc(S(=O)(=O)NC[C@@H](Oc2ccc(C(F)(F)F)cc2)[C@H]2CCNC2)c1 [Example 3-26, N-{3-[(S)-2-(S)-Pyrrolidin-3-yl-2-(4-trifluoromethylphenoxy)ethylsulfamoyl]phenyl}acetamide] | ≤ 10 nM | 
NS(=O)(=O)c1ccc(S(=O)(=O)NCC(Oc2ccc(C(F)(F)F)cc2)C2CCNC2)cc1 [Example 3-30, Benzene-1,4-disulfonic acid lamide 4-{[(S)-2-(S)-pyrrolidin-3-yl-2-(4-trifluoromethylphenoxy)ethyl]amide}] | ≤ 10 nM | 
CNS(=O)(=O)c1ccc(S(=O)(=O)NCC(Oc2ccc(C(F)(F)F)cc2)C2CCNC2)cc1 [Example 3-31, Benzene-1,4-disulfonic acid 1-methylamide 4-{[(S)-2-(S)-pyrrolidin-3-yl-2-(4-trifluoromethylphenoxy)ethyl]amide}] | ≤ 10 nM | 
O=S(=O)(NC[C@@H](Oc1ccc(C(F)(F)F)cc1)[C@H]1CCNC1)C1CC1 [Example 3-8, Cyclopropanesulfonic acid [(S)-2-(S)-pyrrolidin-3-yl-2-(4-trifluoromethylphenoxy)ethyl]amide] | ≤ 10 nM | 
CNC(=O)c1cccc(S(=O)(=O)NCC(Oc2ccc(C(F)(F)F)cc2)C2CCNC2)c1 [Example 3-25, N-Methyl-3-[(S)-2-(S)--pyrrolidin-3-yl-2-(4-trifluoromethylphenoxy)ethylsulfamoyl]benamide] | ≤ 10 nM | 
NS(=O)(=O)C[C@@H](Oc1ccc(C(F)(F)F)cc1)[C@H]1CCNC1 [Example 4, (S)-2-(S)-Pyrrolidin-3-yl-2-(4-trifluoromethylphenoxy)ethanesulfonic Acid Amide] | ≤ 10 nM | 
CN(C)S(=O)(=O)C[C@@H](Oc1ccc(C(F)(F)F)cc1)[C@H]1CCNC1 [Example 7-1, (S)-2-(S)-Pyrrolidin-3-yl-2-(4-trifluoromethylphenoxy)ethanesulfonic acid dimethylamide] | ≤ 10 nM | 
CS(=O)(=O)c1ccccc1S(=O)(=O)NC[C@@H](Oc1ccc(C(F)(F)F)cc1)[C@H]1CCNC1 [Example 3-29, 2-Methanesulfonyl-N-[(S)-2-(S)-pyrrolidin-3-yl-2-(4-trifluoromethylphenoxy)ethyl]benzenesulfonamide] | ≤ 10 nM | 
CN(C)S(=O)(=O)NC[C@@H](Oc1ccc(C(F)(F)F)cc1)[C@H]1CCNC1 [Example 3-11] | ≤ 10 nM | 
CNS(=O)(=O)C[C@@H](Oc1ccc(C(F)(F)F)cc1)[C@H]1CCNC1 [Example 6, (S)-2-(S)-Pyrrolidin-3-yl-2-(4-trifluoromethylphenoxy)ethanesulfonic Acid Methylamide] | ≤ 10 nM | 
Cn1cncc1S(=O)(=O)NC[C@@H](Oc1ccc(C(F)(F)F)cc1)[C@H]1CCNC1 [Example 3-14, 3-Methyl-3H-imidazole-4-sulfonic acid [(S)-2-(S)-pyrrolidin-3-yl-2-(4-trifluoromethylphenoxy)ethyl]amide] | ≤ 100 nM | 
COc1ccc(S(=O)(=O)NCC(Oc2ccc(C(F)(F)F)cc2)C2CCNC2)cc1 [Example 3-23, 4-Methoxy-N-[(S)-2-(S)-pyrrolidin-3-yl-2-(4-trifluoromethylphenoxy)ethyl]bensenesulfonamide] | ≤ 10 nM | 
CN(C[C@@H](Oc1ccc(C(F)(F)F)cc1)[C@H]1CCNC1)S(C)(=O)=O [Example 3-3, N-Methyl-N-[(S)-2-(S)-pyrrolidin-3-yl-2-(4-trifluoromethylphenoxy)ethyl]-methanesulfonamide] | ≤ 10 nM | 
O=S(=O)(NC[C@@H](Oc1ccc(C(F)(F)F)cc1)[C@H]1CCNC1)N1CCOCC1 [Example 3-17, Morpholine-4-sulfonic acid [(S)-2-(S)-pyrrolidin-3-yl-2-(4-trifluoromethylphenoxy)ethyl]amide] | ≤ 10 nM | 
CS(=O)(=O)c1cccc(S(=O)(=O)NC[C@@H](Oc2ccc(C(F)(F)F)cc2)[C@H]2CCNC2)c1 [Example 3-28, 3-Methanesulfonyl-N-[(S)-2-(S)-pyrrolidin-3-yl-2-(4-trifluoromethylphenoxy)ethyl]benzenesulfonamide] | ≤ 100 nM | 
O=S(=O)(NC[C@@H](Oc1ccc(C(F)(F)F)cc1)[C@H]1CCNC1)c1ccc(-c2ncccn2)cc1 [Example 3-34, 4-Pyrimidin-2-yl-N-[(S)-2-(S)-pyrrolidin-3-yl-2-(4-trifluoromethylphenoxy)ethyl]benzenesulfonamide] | ≤ 10 nM | 
CS(=O)(=O)c1ccc(S(=O)(=O)NC[C@@H](Oc2ccc(C(F)(F)F)cc2)[C@H]2CCNC2)cc1 [Example 3-27, 4-Methanesulfonyl-N-[(S)-2-(S)-pyrrolidin-3-yl-2-(4-trifluoromethylphenoxy)ethyl]benzenesulfonamide] | ≤ 10 nM | 

The remaining lines, values ahead:

IC50 | SERT pIC50 | Compound
≤ 10 nM |  | CS(=O)(=O)CS(=O)(=O)NC[C@@H](Oc1ccc(C(F)(F)F)cc1)[C@H]1CCNC1 [Example 3-12, C-Methanesulfonyl-N-[(S)-2-(S)-pyrrolidin-3-yl-2-(4-trifluoromethylphenoxy)ethyl]methanesulfonamide]
≤ 10 nM |  | O=S(=O)(NC[C@@H](Oc1ccc(C(F)(F)F)cc1)[C@H]1CCNC1)c1ccccc1 [Example 3-19, N-[(S)-2-(S)-Pyrrolidin-3-yl-2-(4-trifluoromethylphenoxy)ethyl]benzenesulfonamide]
≤ 10 nM |  | O=S(=O)(NC[C@@H](Oc1ccc(C(F)(F)F)cc1)[C@H]1CCNC1)c1ccc(-n2cccn2)cc1 [Example 3-32, 4-Pyrazol-1-yl-N-[(S)-2-(S)-pyrrolidin-3-yl-2-(4-trifluoromethylphenoxy)ethyl]benzenesulfonamide]
≤ 10 nM |  | O=S(=O)(C[C@@H](Oc1ccc(C(F)(F)F)cc1)[C@H]1CCNC1)NCc1ccccc1 [Example 5, (S)-2-(S)-Pyrrolidin-3-yl-2-(4-trifluoromethylphenoxy)ethanesulfonic Acid Benzylamide]
≤ 100 nM |  | O=S(=O)(NCC(Oc1ccc(C(F)(F)F)cc1)C1CCNC1)c1ccc(-c2nnn[nH]2)cc1 [Example 3-35, N[(S)-2-(S)-Pyrrolidin-3-yl-2-(4-trifluoromethylphenoxy)ethyl]-4-(1H-tetrazol-5-yl)-benzenesulfonamide]
≤ 10 nM |  | O=[N+]([O-])c1ccc(S(=O)(=O)NC[C@@H](Oc2ccc(C(F)(F)F)cc2)[C@H]2CCNC2)cc1 [Example 3-22, 4-Nitro-N-[(S)-2-(S)-pyrrolidin-3-yl-2-(4-trifluoromethylphenoxy)ethyl]benzenesulfonamide]
≤ 10 nM |  | CCS(=O)(=O)NC[C@@H](Oc1ccc(C(F)(F)F)cc1)[C@H]1CCNC1 [Example 3-5, Ethanesulfonic acid [(S)-2-(S)-pyrrolidin-3-yl-2-(4-trifluoromethylphenoxy)-ethyl]amide]
≤ 10 nM |  | COCCc1ccc(S(=O)(=O)NC[C@@H](Oc2ccc(C(F)(F)F)cc2)[C@H]2CCNC2)cc1 [Example 3-24, 4-(2-Methoxyethyl)-N-[(S)-2-(S)-pyrrolidin-3-yl-2-(4-trifluoromethylphenoxy)ethyl]benzenesulfonamide]
≤ 10 nM |  | N#Cc1ccc(S(=O)(=O)NC[C@@H](Oc2ccc(C(F)(F)F)cc2)[C@H]2CCNC2)cc1 [Example 3-20, 4-Cyano-N-[(S)-2-(S)-pyrrolidin-3-yl-2-(4-trifluoromethylphenoxy)ethyl]benzenesulfonamide]
≤ 100 nM |  | CS(=O)(=O)NC[C@@H](Oc1ccc(C(F)(F)F)cc1)[C@@H]1CCNC1 (stereo in doubt) [Example 3-2, N-[(R)-2-(S)-Pyrrolidin-3-yl-2-(4-trifluoromethylphenoxy)ethyl]-methanesulfonamide]
≤ 10 nM |  | O=S(=O)(NC[C@@H](Oc1ccc(C(F)(F)F)cc1)[C@@H]1CCNC1)c1ccccc1 (stereo in doubt) [Example 3-18, N-[(R)-2-(S)-Pyrrolidin-3-yl-2-(4-trifluoromethylphenoxy)ethyl]benzenesulfonamide]
≤ 10 nM |  | O=S(=O)(NC[C@@H](Oc1ccc(C(F)(F)F)cc1)[C@H]1CCNC1)c1cccc2nonc12 [Example 3-16, Benzo[1,2,5]oxadiazole-4-sulfonic acid [(S)-2-(S)-pyrrolidin-3-yl-2-(4-trifluoromethylphenoxy)ethyl]amide]
≤ 10 nM |  | O=S(=O)(NC[C@@H](Oc1ccc(C(F)(F)F)cc1)[C@H]1CCNC1)c1ccc(-c2cnco2)cc1 [Example 2, 4-Oxazol-5-yl-N—[(S)-2-(S)-pyrrolidin-3-yl-2-(4-trifluoromethylphenoxy)ethyl]benzenesulfonamide]
≤ 10 nM |  | CNS(=O)(=O)N(C)C[C@@H](Oc1ccc(C(F)(F)F)cc1)[C@H]1CCNC1 [Example 1]
≤ 100 nM |  | CC(C)S(=O)(=O)NC[C@@H](Oc1ccc(C(F)(F)F)cc1)[C@H]1CCNC1 [Example 3-7, Propane-2-sulfonic acid [(S)-2-(S)-pyrrolidin-3-yl-2-(4-trifluoromethylphenoxy)ethyl]amide]
≤ 10 nM |  | Cc1cc(C)n(-c2ccc(S(=O)(=O)NCC(Oc3ccc(C(F)(F)F)cc3)C3CCNC3)cc2)n1 [Example 3-33, 4-(3,5-Dimethyl-pyrazol-1-yl)-N-(S)-2-(S)-pyrrolidin-3-yl-2-(4-trifluoromethylphenoxy)ethyl]benzenesulfonamide]
≤ 100 nM |  | O=S(=O)(NC[C@@H](Oc1ccc(C(F)(F)F)cc1)[C@H]1CCNC1)c1ncn[nH]1 [Example 3-15]
 | ≧7.0 | NC(=O)NS(=O)(=O)NC[C@@H](Oc1ccc(C(F)(F)F)cc1)[C@H]1CCNC1 [Example 3-10, N[(S)-2-(S)-pyrrolidin-3-yl-2-(4-trifluoromethylphenoxy)ethyl]sulfonylurea]

— patent publication US8637568B2, “Serotonin reuptake inhibitors” (Theravance, Inc., priority 2010, dated 2014)
